Experimental data reported in the CheMixHub ionic liquid set.
Values joined by “and” are separate entries in the source; they are usually repeats but may differ in a detail not shown here. Equal entries are not always repeated.

Test: xn = mol fraction of the nth substance listed

CC1COC(=O)O1 (configuration not stated) + COCCn1cc[n+](C)c1.N#C[S-]
101 kPa, x2 = 0
Conditions | viscosity [mPa·s]
288.15 K | 3.06
293.15 K | 2.75
298.15 K | 2.47
303.15 K | 2.25
308.15 K | 2.05
313.15 K | 1.88
318.15 K | 1.73
323.15 K | 1.6
328.15 K | 1.49
333.15 K | 1.39
338.15 K | 1.29
343.15 K | 1.21

CCCOCCO + COS(=O)(=O)[O-].Cn1cc[n+](C)c1
viscosity [mPa·s], 101 kPa
Conditions | x2 = 0.00104 | x2 = 0.002597 | x2 = 0.004149 | x2 = 0.005696 | x2 = 0.007238 | x2 = 0.008775
293.15 K | 2.6 | 2.63 | 2.65 | 2.67 | 2.7 | 2.73
303.15 K | 2.15 | 2.18 | 2.21 | 2.24 | 2.27 | 2.29
313.15 K | 1.81 | 1.84 | 1.88 | 1.91 | 1.95 | 1.99

CCCC[n+]1ccn(C)c1.F[B-](F)(F)F + CS(C)=O
100 kPa
Conditions | electrical conductivity, 298.15 K [S/m] | viscosity, 298.15 K | viscosity, 303.15 K [mPa·s] | viscosity, 308.15 K [mPa·s] | viscosity, 313.15 K [mPa·s]
x1 = 0.0192 | – | 3.4 mPa·s | 2.9 | 2.46 | 2.17
x1 = 0.0447 | – | 5.06 mPa·s | 4.12 | 3.28 | 2.8
x1 = 0.0661 | – | 6.29 mPa·s | 5.13 | 3.85 | 3.2
x1 = 0.0722 | 0.974 | 3.144 mPa·s | – | – | –
x1 = 0.0974 | – | 8.27 mPa·s | 6.5 | 4.89 | 4.03
x1 = 0.1622 | – | 12.79 mPa·s | 9.68 | 6.72 | 5.22
x1 = 0.1764 | – | 5.489 mPa·s | – | – | –
x1 = 0.2138 | – | 16.68 mPa·s | 12.57 | 8.83 | 6.86
x1 = 0.2145 | 1.016 | 6.836 mPa·s | – | – | –
x1 = 0.2889 | – | 22.73 mPa·s | 17.15 | 11.9 | 9.21
x1 = 0.3225 | 0.831 | 11.38 mPa·s | – | – | –
x1 = 0.3735 | – | 30.07 mPa·s | 22.87 | 15.97 | 12.58
x1 = 0.4189 | 0.672 | 17.2 mPa·s | – | – | –
x1 = 0.4431 | – | 36.58 mPa·s | 27.97 | 19.78 | 15.65
x1 = 0.5247 | – | 44.65 mPa·s | 34.44 | 24.63 | 19.75
x1 = 0.607 | 0.436 | 34 mPa·s | – | – | –
x1 = 0.6172 | – | 54.3 mPa·s | 42.3 | 30.73 | 24.85
x1 = 0.6557 | 0.352 | 38.87 mPa·s | – | – | –
x1 = 0.6772 | – | 61 mPa·s | 47.6 | 34.97 | 28.49
x1 = 0.7513 | – | 69.5 mPa·s | 54.7 | 40.59 | 33.35
x1 = 0.7958 | – | 75 mPa·s | 59.2 | 44.05 | 36.37
x1 = 0.8283 | 0.284 | – | – | – | –
x1 = 0.8516 | – | 81.9 mPa·s | – | 48.7 | 40.3
x1 = 0.8954 | – | 87.5 mPa·s | 69.6 | 52.5 | 43.72
x1 = 0.9155 | – | 82.7 mPa·s | – | – | –
x1 = 0.9373 | – | 92.9 mPa·s | 74.1 | 56.2 | 46.9
x1 = 0.9687 | – | 97.1 mPa·s | 77.5 | 59 | 49.4
x1 = 1 | 0.243 | 101 mPa·s and 104.7 mPa·s | 80.7 | 61.5 | 51.5

CCC[N+]1(C)CCCC1.O=S(=O)([N-]S(=O)(=O)C(F)(F)F)C(F)(F)F + CS(C)=O
electrical conductivity [S/m], 101 kPa, frequency 0.0005 MHz
Conditions | 278.15 K | 288.15 K | 298.15 K | 308.15 K | 318.15 K | 328.15 K | 338.15 K | 348.15 K | 358.15 K
x1 = 0.05995 | – | 0.967 | 1.18 | 1.4 | 1.62 | 1.85 | 2.08 | 2.31 | 2.54
x1 = 0.1606 | 0.953 | 1.21 | 1.5 | 1.79 | 2.01 | 2.39 | 2.76 | 3.05 | 3.39
x1 = 0.3647 | 0.66 | 0.879 | 1.09 | 1.37 | 1.65 | 1.9 | 2.12 | 2.41 | 2.75

viscosity [mPa·s], 101 kPa
Conditions | 278.15 K | 288.15 K | 298.15 K | 308.15 K | 318.15 K | 328.15 K | 338.15 K | 348.15 K | 358.15 K
x1 = 0.05995 | – | 3.56 | 2.86 | 2.367 | 1.965 | 1.682 | 1.446 | 1.27 | 1.126
x1 = 0.1606 | 7.89 | 5.88 | 4.56 | 3.66 | 2.99 | 2.51 | 2.138 | 1.847 | 1.623
x1 = 0.3647 | 20.1 | 13.94 | 10.18 | 7.75 | 6.1 | 4.93 | 4.08 | 3.44 | 2.95
x1 = 1 | 163.6 | 96.2 | 60.6 | 40.8 | 28.9 | 21.3 | 16.29 | 12.82 | 10.34

O + C[C@@H](O)[C@H](N)C(=O)O + CCCCCCCCCCCCCCCC[n+]1ccccc1.[Cl-]
Conditions | electrical conductivity [S/m]
308.15 K, 101 kPa, x2 = 0, x3 = 0 | 6.7e-05

O + C[C@H](N)C(=O)O + CCCCCCCCCCCCCCCC[n+]1ccccc1.[Cl-]
Conditions | electrical conductivity [S/m]
308.15 K, 101 kPa, x2 = 0, x3 = 0 | 6.7e-05

CCCC[n+]1ccn(C)c1.F[B-](F)(F)F + Cc1ccccc1
viscosity [mPa·s], 101 kPa
Conditions | x2 = 0.05 | x2 = 0.1 | x2 = 0.2 | x2 = 0.3 | x2 = 0.33
298.15 K | 80.4 | 74.5 | 59.9 | 47.9 | 44.8
300.65 K | 54.8 | 50.7 | 39.3 | 29.3 | 27.8
303.15 K | 41.3 | 38.1 | 29.2 | 21.6 | 20.46
305.65 K | 33.3 | 30.6 | 23.5 | 17.49 | 16.56
308.15 K | 28 | 25.7 | 19.89 | 15 | 14.18
310.65 K | 24.4 | 22.36 | 17.41 | 13.35 | 12.59
313.15 K | 21.75 | 19.9 | 15.63 | 12.18 | 11.46
315.65 K | 19.74 | 18.04 | 14.3 | 11.31 | 10.62
318.15 K | 18.18 | 16.59 | 13.26 | 10.64 | 9.97
320.65 K | 16.93 | 15.43 | 12.44 | 10.11 | 9.46
323.15 K | 15.91 | 14.49 | 11.76 | 9.68 | 9.05
325.65 K | 15.07 | 13.71 | 11.21 | 9.32 | 8.7
328.15 K | 14.36 | 13.05 | 10.74 | 9.02 | 8.41
330.65 K | 13.75 | 12.48 | 10.35 | 8.77 | 8.17
333.15 K | 13.23 | 12 | 10 | 8.55 | 7.96
335.65 K | 12.77 | 11.58 | 9.7 | 8.36 | 7.77
338.15 K | 12.37 | 11.21 | 9.44 | 8.19 | 7.61

CCCC[n+]1ccn(C)c1.F[B-](F)(F)F + ClC(Cl)Cl
298.15 K, 101 kPa, x2 = 0
Conditions | electrical conductivity [S/m] | viscosity [mPa·s]
– | 0.194 | 116

CCCC[n+]1ccn(C)c1.F[B-](F)(F)F + ClCCl
298.15 K, 101 kPa, x2 = 0
Conditions | electrical conductivity [S/m] | viscosity [mPa·s]
– | 0.194 | 116

CCCC[n+]1ccn(C)c1.F[B-](F)(F)F + NC(N)=O + O
Conditions | viscosity [mPa·s]
298.15 K, 100 kPa, x2 = 0, x3 = 0.9487 | 1.99

CCCC[n+]1ccn(C)c1.F[B-](F)(F)F + NC=O
101 kPa, x1 = 1
Conditions | viscosity [mPa·s]
308.15 K | 58.4
318.15 K | 38.7

O + NCC(=O)O + CCCCCCCCCCCCCCCC[n+]1ccccc1.[Cl-]
Conditions | electrical conductivity [S/m]
308.15 K, 101 kPa, x2 = 0, x3 = 0 | 6.7e-05

CC(=O)[O-].CCCC[n+]1ccn(C)c1 + NCCCNCCCN + O
viscosity [mPa·s], 101 kPa
Conditions | 298.15 K | 303.15 K | 308.15 K | 313.15 K | 318.15 K | 323.15 K | 328.15 K | 333.15 K
x1 = 0.03479, x2 = 0 | 2.23 | 2.18 | 2.16 | 2.13 | 1.74 | 1.58 | 1.51 | 1.24
x1 = 0.03897, x2 = 0 | 2.35 | 2.29 | 2.25 | 2.22 | 2.11 | 2.07 | 1.91 | 1.86
x1 = 0.04311, x2 = 0 | 2.66 | 2.63 | 2.56 | 2.49 | 2.29 | 2.26 | 2.02 | 1.97

CC(=O)[O-].CCCC[n+]1ccn(C)c1 + NCCN1CCNCC1 + O
viscosity [mPa·s], 101 kPa
Conditions | 298.15 K | 303.15 K | 308.15 K | 313.15 K | 318.15 K | 323.15 K | 328.15 K | 333.15 K
x1 = 0.03479, x2 = 0 | 2.23 | 2.18 | 2.16 | 2.13 | 1.74 | 1.58 | 1.51 | 1.24
x1 = 0.03897, x2 = 0 | 2.35 | 2.29 | 2.25 | 2.22 | 2.11 | 2.07 | 1.91 | 1.86
x1 = 0.04311, x2 = 0 | 2.66 | 2.63 | 2.56 | 2.49 | 2.29 | 2.26 | 2.02 | 1.97

CCCC[n+]1ccn(C)c1.F[B-](F)(F)F + NCCNCCN
101.3 kPa, x1 = 1
Conditions | viscosity [mPa·s]
298.15 K | 101.1
303.15 K | 81.9
308.15 K | 63.6

CCCC[n+]1ccn(C)c1.F[B-](F)(F)F + NCCO + O
viscosity [mPa·s], 101 kPa
Conditions | 293.15 K | 298.15 K | 303.15 K | 308.15 K | 313.15 K | 318.15 K | 323.15 K | 328.15 K | 333.15 K
x1 = 0.0337, x2 = 0.2024 | 7 | 5.5 | 4.5 | 3.8 | – | – | – | – | –
x1 = 0.0792, x2 = 0.1188 | 6.1 | 4.7 | 4 | 3.4 | – | – | – | – | –
x1 = 0.0977, x2 = 0.2442 | – | – | 7.3 | 6 | 5.1 | 4.3 | 3.7 | – | –
x1 = 0.1701, x2 = 0.3402 | – | – | – | 9 | 7.6 | 6.5 | 5.5 | 4.7 | 4.1
